Results: patent US9476017B2, “Compositions and methods for cleaning, disinfecting, and sanitizing that are effluent neutral” (Diversey, Inc, priority 2012, dated 2016)
Read-outs that look alike come from different tables or passages of the source.

Assays:
Saccharomyces cerevisiae = experiment: Yeast growth test (Example 6); type: cell-based; conditions: supplement at concentrations above 10 ppm; 30° C.; compared to control without supplements
Experimental: These experiments were used to investigate whether potential residues of cleaning formulations described herein have any impact on the growth or metabolism of a fermentative yeast cell. Saccharomyces cerevisiae was selected as a typical member of fermenting yeasts. Malt extract agar tubes with an angular surface were used to grow starter cultures. Two globules that were covered with Saccaromyces cerevisiae (from a freeze culture collection DSM 1333) were streaked onto an agar surface and incubated at 30° C. for 3 days. Yeast colonies were grown, transferred to liquid growth media and incubated for 15-20 hours at 30° C. A second transfer was conducted into fresh liquid medium. The grown medium was transferred into closed, sterile tubes and centrifuged for 20 minutes at 8000 G. The liquid was decanted and the pellets collected in 10 mL of sterile Ringer solution. A Thoma Hemocytometer was prepared. Cells of 4 squares across were counted. Counted numbers from 4 squares were averaged and cell concentrations were calculated. The concentration of cells in the original mixture=number of cells counted*10^6=cells/mL. Dilutions were made to reach final cell concentration of 1×10^6/mL in culture medium. […] Start extinction was measured at 578 nm with help of a spectrophotometer. […] Every 1 to 2 hours samples were taken and extinctions were measured. […] The difference ∂ of extinction to start was calculated. […]

[1] = Experimental: Formulation B was combined with three sanitizing additives hydrogen peroxide (i.e., “peroxide”), peracetic acid (PAA) and chlorine dioxide. Testing was conducted at 80° C. to simulate CIP tank conditions. Ferment soil was added to the tests to further simulate real conditions.
fermentative wild yeasts = experiment: Efficiency against fermentative wild yeasts; type: cell-based; conditions: all temperatures, 20 minutes or longer
Experimental: (§1) Testing was done according to test protocols EN 1276 and EN 1650. Formulation B and Formulation D (a peracetic acid-based formulation) were tested separately and in combination. Formulation B was also tested in combination with hydrogen peroxide. Tests were run at 20°, 40° C. and 60° C. in the presence of 1% ferment soil at contact times of 10, 20 and 30 minutes. Kill rates are expressed as log reductions.
At 20° C. and 40° C., 0.28% peroxide […] was ineffective on Lactobacilli. The higher kill rate at 60° C. is mainly due to temperature.

Lactobacillus brevis = experiment: Efficiency against Lactobacillus brevis, EN 1276; type: cell-based
Experimental: as §1

Question: Which “S. cerevisiae cell growth” value (Saccharomyces cerevisiae) does the source give for `[Na+].[OH-]` [Caustic Soda, sodium hydroxide] here?
Answer: significantly decreased or even inhibited

Question: Which stability ([1]; 10 ppm, 80° C., ferment soil) does the source give for `[O][Cl+][O-]` [Chlorine dioxide, chlorine dioxide] here?
Answer: very unstable

Question: Which “effectiveness” value (fermentative wild yeasts; 0.15% (225 ppm PAA)) does the source give for `CC(=O)OO` [Peracetic acid, peracetic acid] here?
Answer: very effective

Question: And the “effectiveness” value (fermentative wild yeasts; 0.3% (450 ppm))?
Answer: very effective

Question: What about the “effectiveness” value (Lactobacillus brevis; 0.3% (450 ppm), all temperatures, 20 minutes or longer) of the same molecule?
Answer: very effective

Question: And the stability ([1]; in Formulation B and ferment soil, versus high alkaline solutions)?
Answer: better stability

Question: What about the half life ([1]; in the presence of Formulation B, 80° C., ferment soil) of the same molecule?
Answer: > 30 min

Question: With `OO` [hydrogen peroxide] as the molecule, how does the “effectiveness” value (Lactobacillus brevis; 0.28% (1000 ppm), at 20° C. and 40° C.) read?
Answer: ineffective

Question: What about the “effectiveness” value (Lactobacillus brevis; 1.4% (5000 ppm), at 40° C. and 20 minute contact times) of the same molecule?
Answer: became effective
